This experiment relates to SK-OV-3 cells. Description: Effect of compounds on tryptophan catabolism in SK-OV-3 cell line (inhibition of kynurenine production, LC-MS/MS). The experiment is classed as cell-based. To be noted: Homo sapiens, SK-OV-3, 24 h, read-out: IC50 Ranges (ic50 values for inhibition of Kynurenine production). A digest of the protocol:
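Kynurenine in supernatants quantified by LC-MS/MS after 24 h compound exposure (37 °C; top 30 μM, eight 3-fold steps, duplicate) in DMEM F-12 containing 6 mg/mL L-tryptophan. Cells pre-plated overnight in McCoy's 5A with 10% FBS. Viability checked in parallel by ATP luminescence.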

[1] abbreviates: SK-OV-3 cell line, 24 h incubation, kynurenine in supernatant by LC-MS/MS.

Read-outs that look alike come from different tables or passages of the source.

Broadly, the IC50 is the concentration that inhibits the measured activity by half. For the molecule `Cc1ccc(CN(C(=O)Nc2ccc(C#N)cc2)c2cnnn2C)o1` [Compound 268, 3-(4-cyanophenyl)-1-[(5-methyl-2-furyl)methyl]-1-(3-methyltriazol-4-yl)urea], the IC50 under setting [1] lay within 500 to 1000 nM.

Regarding `CCc1ccc(NC(=O)N(Cc2cnn(C)c2Cl)C2CCCC2)cc1` [Compound 42, 1-[(5-chloro-1-methyl-pyrazol-4-yl)methyl]-1-cyclopentyl-3-(4-ethylphenyl)urea], under setting [1], the IC50 lay within 100 to 500 nM. On to `Cc1ccc(CN(C(=O)Nc2ccccc2)C(C)C)o1` [Compound 138, 1-isopropyl-1-[(5-methyl-2-furyl)methyl]-3-phenyl-urea], for which the IC50 under setting [1] lay in the range of 1000 to 5000 nM.

With `Cc1ccc(CN(C(=O)Nc2ccc(C#N)cc2)c2ccn(C)n2)o1` [Compound 221, 3-(4-cyanophenyl)-1-[(5-methyl-2-furyl)methyl]-1-(1-methylpyrazol-3-yl)urea], the IC50 under setting [1] lay within 500 to 1000 nM. `O=C(Nc1ccccc1)N(Cc1cccs1)c1ccc(Cl)cc1` [Compound 196, 1-(4-chlorophenyl)-3-phenyl-1-(2-thienylmethyl)urea]: the IC50 under setting [1] fell in the range of 1000 to 5000 nM.

For the molecule `COc1ccc(CN(C(=O)NCCc2ccccc2)C2CCCC2)cc1C` [Compound 46, 1-cyclopentyl-1-[(4-methoxy-3-methyl-phenyl)methyl]-3-(2-phenylethyl)urea], under setting [1], the IC50 was 1000 to 5000 nM. In the case of `Cc1ccc(CN(C(=O)Nc2ccc(-c3cnn(CCN(C)C)c3)cc2)C2CCCC2)o1` [Compound 100, 1-cyclopentyl-3-[4-[1-[2-(dimethylamino)ethyl]pyrazol-4-yl]phenyl]-1-[(5-methyl-2-furyl)methyl]urea], under setting [1], the IC50 was over 5000 nM.

In the case of `Cc1ccc(CN(C(=O)Nc2nnc(-c3ccccc3)o2)C2CCCC2)o1` [Compound 175, 1-cyclopentyl-1-[(5-methyl-2-furyl)methyl]-3-(5-phenyl-1,3,4-oxadiazol-2-yl) urea], the IC50 under setting [1] was 500 to 1000 nM. As for `O=C(Nc1ccc(Cl)cc1)N(Cc1cn2ccncc2n1)C1CCC1` [Compound 212, 3-(4-chlorophenyl)-1-cyclobutyl-1-(imidazo[1,2-a]pyrazin-2-ylmethyl)urea], the IC50 under setting [1] was in the range of 1000 to 5000 nM.

With `O=C(Nc1ccc(Cl)cc1)N(Cc1cn2ccccc2n1)C1CCC1` [Compound 250, 3-(4-chlorophenyl)-1-cyclobutyl-1-(imidazo[1,2-a]pyridin-2-ylmethyl)urea], under setting [1], the IC50 lay within 1000 to 5000 nM. `O=C(Nc1cc(Cl)nc(Cl)c1)N(Cc1cccs1)C1CCCC1` [Compound 10, 1-cyclopentyl-3-(2,6-dichloro-4-pyridyl)-1-(2-thienylmethyl)urea]: the IC50 under setting [1] was 1000 to 5000 nM.

As for `O=C(Nc1ccc(Cl)cc1)N(Cc1ncccn1)C1CCCC1` [Compound 73, 3-(4-chlorophenyl)-1-cyclopentyl-1-(pyrimidin-2-ylmethyl)urea], the IC50 under setting [1] fell in the range of 1000 to 5000 nM.

Regarding `O=C(Nc1ccc(Cl)cc1)N(Cc1ccc2ncsc2c1)C1CCC1` [Compound 243, 1-(1,3-benzothiazol-6-ylmethyl)-3-(4-chlorophenyl)-1-cyclobutyl-urea], the IC50 under setting [1] is 100 to 500 nM.

`Cn1ncc2ccc(CN(C(=O)Nc3ccc(C#N)cc3)C3CCC3)cc21` [Compound 217, 3-(4-cyanophenyl)-1-cyclobutyl-1-[(1-methylindazol-6-yl)methyl]urea]: the IC50 under setting [1] was in the range of 100 to 500 nM. With `Cc1ncc(CN(C(=O)Nc2ccc(C#CCO)cc2)C2CCCC2)o1` [Compound 294, 1-cyclopentyl-3-[4-(3-hydroxyprop-1-ynyl)phenyl]-1-[(2-methyloxazol-5-yl)methyl]urea], under setting [1], the IC50 was under 100 nM.

`Cc1oncc1N(Cc1ccc2scnc2c1)C(=O)Nc1ccc(C#N)cc1` [Compound 281, 1-(1,3-benzothiazol-5-ylmethyl)-3-(4-cyanophenyl)-1-(5-methylisoxazol-4-yl)urea]: under setting [1], the IC50 lay in the range of 1000 to 5000 nM. Consider `Cc1ccc(CN(C(=O)Nc2nnc(C3CCCCC3)o2)C2CCCC2)o1` [Compound 169, 3-(5-cyclohexyl-1,3,4-oxadiazol-2-yl)-1-cyclopentyl-1-[(5-methyl-2-furyl)methyl]urea], for which the IC50 under setting [1] was 1000 to 5000 nM. With `Cc1ccc(CN(C(=O)Nc2ccc(C3CN(C(=O)OC(C)(C)C)C3)cc2)C2CCCC2)o1` [Compound 159, tert-butyl 3-[4-[[cyclopentyl-[(5-methyl-2-furyl)methyl]-carbamoyl]amino]phenyl]azetidine-1-carboxylate], the IC50 fell in the range of 1000 to 5000 nM. For the molecule `O=C(Nc1ccc(F)cc1)N(Cc1ncccn1)C1CCCC1` [Compound 72, 1-cyclopentyl-3-(4-fluorophenyl)-1-(pyrimidin-2-ylmethyl)urea], the IC50 under setting [1] is over 5000 nM.

For `O=C(Nc1ccc(Cl)cc1)N(Cc1ccc2ocnc2c1)C1CCC1` [Compound 232, 1-(1,3-benzoxazol-5-ylmethyl)-3-(4-chlorophenyl)-1-cyclobutyl-urea], under setting [1], the IC50 is under 100 nM. For `Cc1ccc(CN(C(=O)Nc2ccc(C#N)cc2)c2ncccc2C)o1` [Compound 314, 3-(4-cyanophenyl) [(5-methyl-2-furyl)methyl]-1-(3-methyl-2-pyridyl)urea], the IC50 under setting [1] fell in the range of 100 to 500 nM. The same measure, in the same setting: in the case of `O=C(Nc1ccc(F)c(F)c1)N(Cc1cccc(OC(F)(F)F)c1)C1CCCC1` [Compound 142, 1-cyclopentyl-3-(3,4-difluorophenyl)-1-[[3 (trifluoromethoxy)phenyl]methyl]urea] it was 1000 to 5000 nM. On the same count and under the same terms, as for `Cc1ccc(CN(C(=O)Nc2ccc(C#N)cc2)C2CCCC2C#N)o1` (centres unmarked) [Compound 219, 1-(2-cyanocyclopentyl)-3-(4-cyanophenyl)-1-[(5-methyl-2-furyl)methyl]urea], the figure is 100 to 500 nM; as for `Cc1ccc(CN(C(=O)Nc2ccc(C#CCN(C)C)cc2)C2CCCC2)o1` [Compound 112, 1-cyclopentyl-3-[4-[3-(dimethylamino)prop-1-ynyl]phenyl]-1-[(5-methyl-2-furyl)methyl]urea], 500 to 1000 nM. For the molecule `Cc1ccc(NC(=O)N(Cc2ccc(C)o2)C2CCCC2)cn1` [Compound 246, 1-cyclopentyl-1-[(5-methyl-2-furyl)methyl]-3-(6-methyl-3-pyridyl)urea], the IC50 under setting [1] is 500 to 1000 nM.

With `Cn1ncc2ccc(CN(C(=O)Nc3ccc(Cl)cc3)C3CCC3)cc21` [Compound 235, 3-(4-chlorophenyl)-1-cyclobutyl-1-[(1-methylindazol-6-yl)methyl]urea], the IC50 under setting [1] was under 100 nM. In the case of `Cc1ccc(CN(C(=O)Nc2ccc(C#N)cc2)[C@H]2C[C@H](F)C2)o1` [Compound 272, 3-(4-cyanophenyl)-1-(3-fluorocyclobutyl)-1-[(5-methyl-2-furyl)methyl]urea], under setting [1], the IC50 lay in the range of 500 to 1000 nM. Regarding `Cc1ccc(CN(C(=O)Nc2ccc(-n3cc(CO)nn3)cc2)C2CCCC2)o1` [Compound 164, 1-cyclopentyl-3-[4-[4-(hydroxymethyl)triazol-1-yl]phenyl]-1-[(5-methyl-2-furyl)methyl]urea], the IC50 under setting [1] is under 100 nM. Regarding `Cc1ccc(CN(C(=O)Nc2ccc(C#N)cc2)C2CC(F)(F)C2)o1` [Compound 241, 3-(4-cyanophenyl)-1-(3,3-difluorocyclobutyl)-1-[(5-methyl-2-furyl)methyl]urea], the IC50 under setting [1] lay within 500 to 1000 nM. With `O=C(Nc1ccc(Cl)cc1)N(Cc1ccc2ncoc2c1)C1CCC1` [Compound 237, 1-(1,3-benzoxazol-6-ylmethyl)-3-(4-chlorophenyl)-1-cyclobutyl-urea], the IC50 under setting [1] fell in the range of 100 to 500 nM. With `Cc1ncc(CN(C(=O)Nc2ccccc2)C2CCCC2)o1` [Compound 143, 1-cyclopentyl-1-[(2-methyloxazol-5-yl)methyl]-3-phenyl-urea], the IC50 under setting [1] was 1000 to 5000 nM.

With `Cc1ccc(CN(C(=O)N(C)c2ccc(C#CCO)cc2)C2CCC2)o1` [Compound 306, 1-cyclobutyl-3-[4-(3-hydroxyprop-1-ynyl)phenyl]-3-methyl-1-[(5-methyl-2-furyl)methyl]urea], the IC50 under setting [1] lay within 1000 to 5000 nM. Same read-out and setting: as for `O=C(Nc1ccc(Cl)cc1)N(Cc1cccc2ncsc12)C1CCC1` [Compound 262, 1-(1,3-benzothiazol-7-ylmethyl)-3-(4-chlorophenyl)-1-cyclobutyl-urea], the figure is under 100 nM; as for `C#Cc1ccc(NC(=O)N(Cc2ccc(C)o2)C2CCCC2)nc1` [Compound 16, 1-cyclopentyl-3-(5-ethynyl-2-pyridyl)-1-[(5-methyl-2-furyl)methyl]urea], 100 to 500 nM; as for `Cc1ccc(CN(C(=O)Nc2ccc(C#N)cc2)c2cncn2C)o1` [Compound 231, 3-(4-cyanophenyl)-1-[(5-methyl-2-furyl)methyl]-1-(3-methylimidazol-4-yl)urea], 1000 to 5000 nM. The same measure, in the same setting: in the case of `Cc1ccc(CN(C(=O)Nc2ccc(Cl)cc2)c2ccccn2)o1` [Compound 282, 3-(4-chlorophenyl)-1-[(5-methyl-2-furyl)methyl]-1-(2-pyridyl)urea] it was 500 to 1000 nM. On to `C#Cc1ccc(NC(=O)N(Cc2ccc(C)o2)C2COC2)cc1` [Compound 236, 3-(4-ethynylphenyl)-1-[(5-methyl-2-furyl)methyl]-1-(oxetan-3-yl)urea], for which the IC50 under setting [1] was 500 to 1000 nM. Take `Cc1ccc(CN(C(=O)Nc2ccc(C#CCO)cc2)c2nccn2C)o1` [Compound 309, 3-[4-(3-hydroxyprop-ynyl)phenyl]-1-[(5-methyl-2-furyl)methyl]-1-(1-methylimidazol-2-yl)urea]: the IC50 under setting [1] was 100 to 500 nM. `Cc1ccc(CN(C(=O)Nc2ccccc2)C2CCN(C(=O)OC(C)(C)C)CC2)o1` [Compound 136, tert-butyl 4-[(5-methyl-2-furyl)methyl-(phenylcarbamoyl)amino]piperidine-1-carboxylate]: the IC50 under setting [1] is over 5000 nM. On the same count and under the same terms, as for `Cc1ccc(CN(C(=O)Nc2ccc(C#N)cn2)C2CCCC2)o1` [Compound 121, 3-(5-cyano-2-pyridyl)-1-cyclopentyl-1-[(5-methyl-2-furyl)methyl]urea], the figure is 500 to 1000 nM; as for `Cc1cn(-c2ccc(NC(=O)N(Cc3ccc(C)o3)C3CCCC3)cc2)nn1` [Compound 320, 1-cyclopentyl-1-[(5-methyl-2-furyl)methyl]-3-[4-(4-methyltriazol-1-yl)phenyl]urea], 100 to 500 nM.

For the origin of these results see patent US20210238139A1, “MODULATORS OF TRYPTOPHAN CATABOLISM” (E-Therapeutics PLC, priority 2018, published 2021).
